# Columns and labels:
# Experiment in all cases: Off-target kinase panel
# Format in all cases: biochemical
# CDK2/cyclinA(h) = CDK2/cyclinA(h) (Homo sapiens, UniProt P24941); conditions: MI891 @ 1 µM
# Method: (§1) To evaluate the selectivity of MI891, an off-target profiling study was performed using a panel of 58 kinases.
# PKA(h) = molecular target: T1, PKA(h) (Homo sapiens, UniProt P17612); conditions: MI891 @ 1 µM
# T1 construct: purchased Eurofins (Millipore) KinaseProfiler, inferred from the naming style
# Method: as §1
# CaMKI(h) = CaMKI(h) (Homo sapiens, UniProt Q14012); conditions: MI891 @ 1 µM
# Method: as §1
# ROCK-I(h) = molecular target: T2, ROCK-I(h) (Homo sapiens, UniProt Q13464); conditions: MI891 @ 1 µM
# T2 construct: purchased Eurofins (Millipore) KinaseProfiler, inferred from the naming style
# Method: as §1
# SRPK1(h) = molecular target: T3, SRPK1(h) (Homo sapiens, UniProt Q96SB4); conditions: MI891 @ 1 µM
# T3 construct: purchased Eurofins (Millipore) KinaseProfiler, inferred from the naming style
# Method: as §1
# PDGFRβ(h) = molecular target: T4, PDGFRβ(h) (Homo sapiens, UniProt P09619); conditions: MI891 @ 1 µM
# T4 construct: purchased Eurofins (Millipore) KinaseProfiler, inferred from the naming style
# Method: as §1
# GSK3β(h) = GSK3β(h) (Homo sapiens, UniProt P49841); conditions: MI891 @ 1 µM
# Method: as §1
# CK2α2(h) = CK2α2(h) (Homo sapiens, UniProt P19784); conditions: MI891 @ 1 µM
# Method: as §1
# MAPKAP-K2(h) = molecular target: T5, MAPKAP-K2(h) (Homo sapiens, UniProt P49137); conditions: MI891 @ 1 µM
# T5 construct: purchased Eurofins (Millipore) KinaseProfiler, inferred from the naming style
# Method: as §1
# c-RAF(h) = c-RAF(h) (Homo sapiens, UniProt P04049); conditions: MI891 @ 1 µM
# Method: as §1
# NEK2(h) = molecular target: T6, NEK2(h) (Homo sapiens, UniProt P51955); conditions: MI891 @ 1 µM
# T6 construct: purchased Eurofins (Millipore) KinaseProfiler, inferred from the naming style
# Method: as §1
# TAK1(h) = molecular target: T7, TAK1(h) (Homo sapiens, UniProt O43318); conditions: MI891 @ 1 µM
# T7 construct: purchased Eurofins (Millipore) KinaseProfiler, inferred from the naming style
# Method: as §1
# Pim-1(h) = molecular target: T8, Pim-1(h) (Homo sapiens, UniProt P11309)
# T8 construct: purchased Eurofins (Millipore) KinaseProfiler, inferred from the naming style
# Method: as §1
# PKCα(h) = molecular target: T9, PKCα(h) (Homo sapiens, UniProt P17252); conditions: MI891 @ 1 µM
# T9 construct: purchased Eurofins (Millipore) KinaseProfiler, inferred from the naming style
# Method: as §1
# JAK2(h) = molecular target: T10, JAK2(h) (Homo sapiens, UniProt O60674); conditions: MI891 @ 1 µM
# T10 construct: purchased Eurofins (Millipore) KinaseProfiler, inferred from the naming style
# Method: as §1
# KDR(h) = molecular target: T11, KDR(h) (Homo sapiens, UniProt P35968); conditions: MI891 @ 1 µM
# T11 construct: purchased Eurofins (Millipore) KinaseProfiler, inferred from the naming style
# Method: as §1
# Fyn(h) = Fyn(h) (Homo sapiens, UniProt P06241); conditions: MI891 @ 1 µM
# Method: as §1
# MEK1(h) = molecular target: T12, MEK1(h) (Homo sapiens, UniProt Q02750); conditions: MI891 @ 1 µM
# T12 construct: purchased Eurofins (Millipore) KinaseProfiler, inferred from the naming style
# Method: as §1
# PI3 Kinase (p120g)(h) = molecular target: T13, PI3 Kinase (p120g)(h) (Homo sapiens, UniProt P48736); conditions: MI891 @ 1 µM
# T13 construct: purchased Eurofins (Millipore) KinaseProfiler, inferred from the naming style
# Method: as §1
# PKBα(h) = molecular target: T14, PKBα(h) (Homo sapiens, UniProt P31749); conditions: MI891 @ 1 µM
# T14 construct: purchased Eurofins (Millipore) KinaseProfiler, inferred from the naming style
# Method: as §1
# EphB4(h) = EphB4(h) (Homo sapiens, UniProt P54760); conditions: MI891 @ 1 µM
# Method: as §1
# Lyn(h) = molecular target: T15, Lyn(h) (Homo sapiens, UniProt P07948); conditions: MI891 @ 1 µM
# T15 construct: purchased Eurofins (Millipore) KinaseProfiler, inferred from the naming style
# Method: as §1
# CDK9/cyclin T1(h) = CDK9/cyclin T1(h) (Homo sapiens, UniProt P50750); conditions: MI891 @ 1 µM
# Method: as §1
# DRAK1(h) = DRAK1(h) (Homo sapiens, UniProt Q9UEE5); conditions: MI891 @ 1 µM
# Method: as §1
# ALK(h) = ALK(h) (Homo sapiens, UniProt Q9UM73); conditions: MI891 @ 1 µM
# Method: as §1
# SAPK2a(h) = molecular target: T16, SAPK2a(h) (Homo sapiens, UniProt Q16539); conditions: MI891 @ 1 µM
# T16 construct: purchased Eurofins (Millipore) KinaseProfiler, inferred from the naming style
# Method: as §1
# MLK1(h) = molecular target: T17, MLK1(h) (Homo sapiens, UniProt P80192); conditions: MI891 @ 1 µM
# T17 construct: purchased Eurofins (Millipore) KinaseProfiler, inferred from the naming style
# Method: as §1
# MST1(h) = molecular target: T18, MST1(h) (Homo sapiens, UniProt Q13043); conditions: MI891 @ 1 µM
# T18 construct: purchased Eurofins (Millipore) KinaseProfiler, inferred from the naming style
# Method: as §1
# Aurora-A(h) = Aurora-A(h) (Homo sapiens, UniProt O14965); conditions: MI891 @ 1 µM
# Method: as §1
# CDK1/cyclinB(h) = CDK1/cyclinB(h) (Homo sapiens, UniProt P06493); conditions: MI891 @ 1 µM
# Method: as §1
# Rsk1(h) = molecular target: T19, Rsk1(h) (Homo sapiens, UniProt Q15418); conditions: MI891 @ 1 µM
# T19 construct: purchased Eurofins (Millipore) KinaseProfiler, inferred from the naming style
# Method: as §1
# EphA5(h) = EphA5(h) (Homo sapiens, UniProt P54756); conditions: MI891 @ 1 µM
# Method: as §1
# [1] = molecular target: T20, PI3 Kinase (p110d/p85a)(h) (Homo sapiens, UniProt O00329); conditions: MI891 @ 1 µM
# T20 construct: purchased Eurofins (Millipore) KinaseProfiler, inferred from the naming style
# Method: as §1
# CDK6/cyclinD3(h) = CDK6/cyclinD3(h) (Homo sapiens, UniProt Q00534); conditions: MI891 @ 1 µM
# Method: as §1
# PAK2(h) = molecular target: T21, PAK2(h) (Homo sapiens, UniProt Q13177); conditions: MI891 @ 1 µM
# T21 construct: purchased Eurofins (Millipore) KinaseProfiler, inferred from the naming style
# Method: as §1
# [2] = molecular target: T22, PI3 Kinase (p110b/p85a)(h) (Homo sapiens, UniProt P42338); conditions: MI891 @ 1 µM
# T22 construct: purchased Eurofins (Millipore) KinaseProfiler, inferred from the naming style
# Method: as §1
# EGFR(h) = EGFR(h) (Homo sapiens, UniProt P00533); conditions: MI891 @ 1 µM
# Method: as §1
# Abl(h) = Abl(h) (Homo sapiens, UniProt P00519); conditions: MI891 @ 1 µM
# Method: as §1
# CDK7/cyclinH/MAT1(h) = CDK7/cyclinH/MAT1(h) (Homo sapiens, UniProt P50613); conditions: MI891 @ 1 µM
# Method: as §1
# MSK2(h) = molecular target: T23, MSK2(h) (Homo sapiens, UniProt O75676); conditions: MI891 @ 1 µM
# T23 construct: purchased Eurofins (Millipore) KinaseProfiler, inferred from the naming style
# Method: as §1
# Plk3(h) = molecular target: T24, Plk3(h) (Homo sapiens, UniProt Q9H4B4); conditions: MI891 @ 1 µM
# T24 construct: purchased Eurofins (Millipore) KinaseProfiler, inferred from the naming style
# Method: as §1
# T8 sequence (P11309 whole entry): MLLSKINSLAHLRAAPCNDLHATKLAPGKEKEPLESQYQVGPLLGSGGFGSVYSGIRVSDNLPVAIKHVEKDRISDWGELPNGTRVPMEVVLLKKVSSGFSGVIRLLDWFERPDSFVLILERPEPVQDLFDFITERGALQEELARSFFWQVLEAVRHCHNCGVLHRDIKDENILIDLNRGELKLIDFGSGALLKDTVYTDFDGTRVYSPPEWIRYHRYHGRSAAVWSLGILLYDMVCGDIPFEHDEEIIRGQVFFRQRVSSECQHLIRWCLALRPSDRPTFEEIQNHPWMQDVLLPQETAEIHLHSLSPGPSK
# T23 sequence (O75676 whole entry): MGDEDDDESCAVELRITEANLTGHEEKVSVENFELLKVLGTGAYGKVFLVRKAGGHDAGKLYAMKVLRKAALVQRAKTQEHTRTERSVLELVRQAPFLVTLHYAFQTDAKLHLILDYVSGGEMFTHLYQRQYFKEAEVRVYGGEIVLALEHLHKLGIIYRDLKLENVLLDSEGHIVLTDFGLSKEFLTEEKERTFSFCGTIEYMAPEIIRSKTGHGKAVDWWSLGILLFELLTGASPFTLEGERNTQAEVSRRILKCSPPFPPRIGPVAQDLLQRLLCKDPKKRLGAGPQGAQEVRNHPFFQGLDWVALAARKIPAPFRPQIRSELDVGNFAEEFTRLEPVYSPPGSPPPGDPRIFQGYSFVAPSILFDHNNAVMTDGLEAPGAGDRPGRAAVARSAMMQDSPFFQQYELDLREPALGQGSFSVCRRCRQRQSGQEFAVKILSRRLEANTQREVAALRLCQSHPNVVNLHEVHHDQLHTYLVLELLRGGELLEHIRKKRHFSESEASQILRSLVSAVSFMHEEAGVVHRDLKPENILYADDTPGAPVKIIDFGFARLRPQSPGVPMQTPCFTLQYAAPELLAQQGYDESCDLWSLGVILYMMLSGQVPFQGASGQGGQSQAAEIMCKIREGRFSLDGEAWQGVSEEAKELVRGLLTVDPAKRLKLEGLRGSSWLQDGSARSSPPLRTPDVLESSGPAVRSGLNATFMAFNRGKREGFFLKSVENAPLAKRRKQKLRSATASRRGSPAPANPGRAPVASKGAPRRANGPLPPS
# T12 sequence (Q02750 whole entry): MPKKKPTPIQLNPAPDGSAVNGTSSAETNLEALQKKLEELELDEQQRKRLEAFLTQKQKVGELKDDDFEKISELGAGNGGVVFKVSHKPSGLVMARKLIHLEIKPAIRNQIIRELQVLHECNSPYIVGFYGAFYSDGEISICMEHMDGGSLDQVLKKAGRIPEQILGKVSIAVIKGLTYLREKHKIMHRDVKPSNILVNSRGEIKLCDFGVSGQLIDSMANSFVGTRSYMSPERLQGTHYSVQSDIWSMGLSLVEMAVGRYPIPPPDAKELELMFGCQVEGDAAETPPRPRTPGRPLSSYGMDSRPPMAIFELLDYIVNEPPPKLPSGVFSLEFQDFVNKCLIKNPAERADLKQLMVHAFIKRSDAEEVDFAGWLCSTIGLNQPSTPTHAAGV
# T13 sequence (P48736 whole entry): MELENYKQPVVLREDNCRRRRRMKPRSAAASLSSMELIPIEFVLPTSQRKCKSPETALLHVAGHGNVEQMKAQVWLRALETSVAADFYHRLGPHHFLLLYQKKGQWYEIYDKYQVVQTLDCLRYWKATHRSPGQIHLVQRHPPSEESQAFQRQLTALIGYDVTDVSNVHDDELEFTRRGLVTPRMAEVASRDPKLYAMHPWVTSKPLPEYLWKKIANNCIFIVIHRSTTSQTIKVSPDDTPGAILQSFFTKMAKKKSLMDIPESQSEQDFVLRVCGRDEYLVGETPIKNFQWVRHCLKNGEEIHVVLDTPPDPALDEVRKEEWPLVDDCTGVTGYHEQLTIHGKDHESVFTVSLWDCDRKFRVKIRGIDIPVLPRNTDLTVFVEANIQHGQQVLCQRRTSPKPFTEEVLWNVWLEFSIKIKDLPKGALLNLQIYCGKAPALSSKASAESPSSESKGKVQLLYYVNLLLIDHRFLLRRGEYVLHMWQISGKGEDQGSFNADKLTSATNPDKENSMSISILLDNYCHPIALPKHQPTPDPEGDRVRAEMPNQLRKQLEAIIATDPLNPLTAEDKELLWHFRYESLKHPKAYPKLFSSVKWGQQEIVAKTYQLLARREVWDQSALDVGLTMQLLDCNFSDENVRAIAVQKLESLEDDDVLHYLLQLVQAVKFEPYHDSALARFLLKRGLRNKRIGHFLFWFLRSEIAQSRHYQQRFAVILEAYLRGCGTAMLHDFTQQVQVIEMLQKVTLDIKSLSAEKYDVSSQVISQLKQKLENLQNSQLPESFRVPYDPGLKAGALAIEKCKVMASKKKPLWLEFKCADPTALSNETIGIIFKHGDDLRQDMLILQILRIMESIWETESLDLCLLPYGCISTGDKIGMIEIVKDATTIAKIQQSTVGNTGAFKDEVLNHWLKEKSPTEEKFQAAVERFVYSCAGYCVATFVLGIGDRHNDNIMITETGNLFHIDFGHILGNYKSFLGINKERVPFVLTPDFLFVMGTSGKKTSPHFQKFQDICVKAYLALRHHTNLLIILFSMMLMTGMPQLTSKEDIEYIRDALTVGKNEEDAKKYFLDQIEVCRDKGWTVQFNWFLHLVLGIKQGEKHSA
# T21 sequence (Q13177 whole entry): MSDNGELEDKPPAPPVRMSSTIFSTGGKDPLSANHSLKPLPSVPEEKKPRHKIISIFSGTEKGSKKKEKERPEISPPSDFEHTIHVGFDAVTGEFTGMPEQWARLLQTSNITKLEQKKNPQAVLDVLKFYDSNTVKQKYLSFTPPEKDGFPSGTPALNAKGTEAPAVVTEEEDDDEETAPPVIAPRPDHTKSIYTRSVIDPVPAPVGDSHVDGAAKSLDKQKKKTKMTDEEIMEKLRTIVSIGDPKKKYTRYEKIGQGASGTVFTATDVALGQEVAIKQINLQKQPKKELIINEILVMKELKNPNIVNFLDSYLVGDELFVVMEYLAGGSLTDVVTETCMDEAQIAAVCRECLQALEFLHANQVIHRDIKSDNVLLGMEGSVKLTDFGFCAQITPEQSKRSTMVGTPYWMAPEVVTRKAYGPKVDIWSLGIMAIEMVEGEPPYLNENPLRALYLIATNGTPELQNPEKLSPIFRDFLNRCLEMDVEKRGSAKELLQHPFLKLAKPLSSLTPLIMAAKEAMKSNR
# Chain of GSK3β(h) (P49841 whole entry): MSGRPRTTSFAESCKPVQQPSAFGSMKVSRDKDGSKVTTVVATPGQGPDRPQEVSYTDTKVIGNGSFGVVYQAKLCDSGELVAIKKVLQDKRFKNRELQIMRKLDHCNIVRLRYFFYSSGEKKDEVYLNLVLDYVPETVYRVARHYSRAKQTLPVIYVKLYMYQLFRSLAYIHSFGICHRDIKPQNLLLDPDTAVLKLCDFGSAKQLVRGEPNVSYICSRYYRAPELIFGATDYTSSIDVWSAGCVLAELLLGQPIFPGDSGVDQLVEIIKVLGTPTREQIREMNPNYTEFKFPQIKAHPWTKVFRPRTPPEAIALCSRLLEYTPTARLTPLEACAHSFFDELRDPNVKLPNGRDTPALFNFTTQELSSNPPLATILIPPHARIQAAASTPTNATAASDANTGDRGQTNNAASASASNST
# Chain of c-RAF(h) (P04049 whole entry): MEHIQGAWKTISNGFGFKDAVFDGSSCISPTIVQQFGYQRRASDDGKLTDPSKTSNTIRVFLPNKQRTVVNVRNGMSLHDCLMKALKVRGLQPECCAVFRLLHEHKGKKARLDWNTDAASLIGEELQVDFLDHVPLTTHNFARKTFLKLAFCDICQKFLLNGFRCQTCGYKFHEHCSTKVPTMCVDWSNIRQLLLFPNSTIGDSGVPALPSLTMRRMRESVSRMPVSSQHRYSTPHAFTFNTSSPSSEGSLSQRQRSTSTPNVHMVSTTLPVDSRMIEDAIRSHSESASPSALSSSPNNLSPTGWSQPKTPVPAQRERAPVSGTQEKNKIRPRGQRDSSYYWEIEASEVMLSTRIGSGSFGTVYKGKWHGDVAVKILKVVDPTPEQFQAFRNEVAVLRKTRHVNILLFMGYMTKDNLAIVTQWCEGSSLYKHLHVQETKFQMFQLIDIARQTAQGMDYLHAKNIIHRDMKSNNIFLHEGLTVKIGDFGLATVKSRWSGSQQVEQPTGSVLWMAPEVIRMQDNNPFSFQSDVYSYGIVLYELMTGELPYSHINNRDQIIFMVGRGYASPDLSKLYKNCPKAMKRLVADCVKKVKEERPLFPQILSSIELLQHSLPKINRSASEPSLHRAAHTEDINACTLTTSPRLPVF
# T18 sequence (Q13043 whole entry): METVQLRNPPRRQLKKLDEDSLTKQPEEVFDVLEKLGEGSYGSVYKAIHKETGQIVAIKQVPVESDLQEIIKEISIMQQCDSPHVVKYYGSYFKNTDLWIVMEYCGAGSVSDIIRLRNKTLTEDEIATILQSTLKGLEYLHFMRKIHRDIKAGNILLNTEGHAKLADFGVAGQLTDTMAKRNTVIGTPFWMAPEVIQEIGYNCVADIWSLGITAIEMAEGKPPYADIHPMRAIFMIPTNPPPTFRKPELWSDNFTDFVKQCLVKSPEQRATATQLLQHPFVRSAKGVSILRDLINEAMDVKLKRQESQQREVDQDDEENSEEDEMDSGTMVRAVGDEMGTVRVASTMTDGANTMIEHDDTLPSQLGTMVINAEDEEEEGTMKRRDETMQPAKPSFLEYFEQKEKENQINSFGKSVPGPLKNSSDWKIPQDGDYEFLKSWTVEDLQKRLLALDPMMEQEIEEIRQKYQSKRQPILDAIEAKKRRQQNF
# T16 sequence (Q16539 whole entry): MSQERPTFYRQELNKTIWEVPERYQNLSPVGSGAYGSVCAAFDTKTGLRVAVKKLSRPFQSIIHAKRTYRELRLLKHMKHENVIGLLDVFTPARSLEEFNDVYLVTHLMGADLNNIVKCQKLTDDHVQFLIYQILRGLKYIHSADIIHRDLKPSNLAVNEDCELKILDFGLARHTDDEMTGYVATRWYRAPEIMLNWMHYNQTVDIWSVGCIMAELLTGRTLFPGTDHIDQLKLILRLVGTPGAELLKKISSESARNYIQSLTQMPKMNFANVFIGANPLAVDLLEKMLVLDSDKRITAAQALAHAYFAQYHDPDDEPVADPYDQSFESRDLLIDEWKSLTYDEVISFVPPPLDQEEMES
smiles,measurement,setting,value
"NC(=O)c1cc(Cn2cc(-c3c(-c4ccc(Cl)cc4)nc4c(F)cc(F)cn34)nn2)ccc1Cl [Compound 11, 2-Chloro-5-((4-(2-(4-chlorophenyl)-6,8-difluoroimidazo[1,2-a]pyridin-3-yl)-1H-1,2,3-triazol-1-yl)methyl)-benzamide]",activity at 1 µM,CDK2/cyclinA(h),106%
same,activity at 1 µM,PKA(h),108%
same,activity at 1 µM,CaMKI(h),95%
same,activity at 1 µM,ROCK-I(h),97%
same,activity at 1 µM,SRPK1(h),98%
same,activity at 1 µM,PDGFRβ(h),86%
same,activity at 1 µM,GSK3β(h),99%
same,activity at 1 µM,CK2α2(h),109%
same,activity at 1 µM,MAPKAP-K2(h),101%
same,activity at 1 µM,c-RAF(h),101%
same,activity at 1 µM,NEK2(h),103%
same,activity at 1 µM,TAK1(h),90%
same,activity at 1 µM,Pim-1(h); MI891 @ 1 µM,53%
same,inhibition at 1 µM,Pim-1(h); at 1 μM,53%
same,activity at 1 µM,PKCα(h),97%
same,activity at 1 µM,JAK2(h),101%
same,activity at 1 µM,KDR(h),86%
same,activity at 1 µM,Fyn(h),81%
same,activity at 1 µM,MEK1(h),94%
same,activity at 1 µM,PI3 Kinase (p120g)(h),102%
same,activity at 1 µM,PKBα(h),100%
same,activity at 1 µM,EphB4(h),97%
same,activity at 1 µM,Lyn(h),88%
same,activity at 1 µM,CDK9/cyclin T1(h),124%
same,activity at 1 µM,DRAK1(h),105%
same,activity at 1 µM,ALK(h),76%
same,activity at 1 µM,SAPK2a(h),99%
same,activity at 1 µM,MLK1(h),104%
same,activity at 1 µM,MST1(h),94%
same,activity at 1 µM,Aurora-A(h),81%
same,activity at 1 µM,CDK1/cyclinB(h),96%
same,activity at 1 µM,Rsk1(h),129%
same,activity at 1 µM,EphA5(h),106%
same,activity at 1 µM,[1],98%
same,activity at 1 µM,CDK6/cyclinD3(h),92%
same,activity at 1 µM,PAK2(h),84%
same,activity at 1 µM,[2],100%
same,activity at 1 µM,EGFR(h),103%
same,activity at 1 µM,Abl(h),104%
same,activity at 1 µM,CDK7/cyclinH/MAT1(h),94%
same,activity at 1 µM,MSK2(h),110%
same,activity at 1 µM,Plk3(h),113%
